Measured values published in patent US20160361314A1, “COMBINATION OF AN ALK INHIBITOR AND A CDK INHIBITOR FOR THE TREATMENT OF CELL PROLIFERATIVE DISEASES” (NOVARTIS AG, priority 2013, published 2016).

How the values were obtained:
Format in all cases: cell-based
[1] = tested on: NB-1643 human neuroblastoma cells; experiment: Loewe additivity (CHALICE) synergy screen, CellTiter-Glo viability, 7x7 dose matrix; conditions: NB-1643 (R1275Q), Table 2; for Max Combo Effect: in % (unit assumed)
Protocol: The synergistic interaction of drug combinations were assessed based on the Loewe Additivity Model using Chalice software [CombinatoRx, Cambridge Mass.]). […] 27:659-66. The software compares the response (% inhibition or % reduction of cell viability) of drug treatment from a combination of two agents to the response of the agents acting alone, against the drug-with-itself dose-additive reference model (the Loewe Additivity Model). Deviations from dose additives can be assessed numerically with a “synergy score” which quantifies the overall strength of combination effect. A synergy score >0 indicates a synergistic combination. In order to ensure only strongly synergistic combinations were selected, the acceptance criteria were set at a higher level. Strongly synergistic combinations were defined as having both a synergy score >2, a synergy score that is twice as large as the background (non-synergy) model would predict, and a maximum efficacy of >100, a value equivalent to stasis, as determined from the growth inhibition calculation.
After treatment, cell viabilty (quantity of viable cells) for each test mixtures were determined by the CellTiter-Glo® (CTG) luminescent cell viability assay (Promega) described in the Assay section, infra. […] The response to treatment (% reduction of cell viability) was analyzed using Chalice software [CombinatoRx, Cambridge Mass.]). Data evaluation and graph generation were performed using Microsoft Excel software and Chalice software.
The combinations were tested in duplicate using a 7×7 dose matrix block in 1536 well format with a cell proliferation readout as described in the Assay section infra.
All synergy calculations were performed using CHALICE software package from Zalicus and potential synergistic interactions between compound combinations were assessed using the Excess Inhibition 2D matrix according to the Loewe additivity model and were reported as synergy score (Table 10) (Lehar et al). Strongly synergistic combination were identified as having both (1) a synergy score greater than 2, a synergy score that is twice as large as the background (non-synergy) model would predict, and (2) a maximum efficacy of >100, a value roughly equivalent to stasis, as determined from the growth inhibition calculation.
Cell viability were determined by measuring cellular ATP content using the CellTiter-Glo® (CTG) luminescent cell viability assay (Promega). […] Reduced and enhanced luminescent signal values (responses) were calculated relative to untreated (control) cells, and the calculated signal value proportional to the cell viability.
Synergistic combinations were identified based on the Loewe Addivity Model. […]

[2] = tested on: SH-SY5Y (F1174L) human neuroblastoma cells; experiment: Cell morphology and cell death by optical microscopy; conditions: each compound at its IC50, 72 hours after treatment
Source text: Synergistic anti-proliferative effect of the combination of our invention was visualized by optical microscopy. […] Seventy-two hours after treatment, the treated samples were compared to the untreated samples (vehicle) by optical microscopy and recorded in micrographs (FIGS. 10A to D).

[3] = tested on: NB1643 (R1275Q) human neuroblastoma cells; experiment: ApoTox-Glo Triplex assay, viability and caspase 3/7 apoptosis; conditions: 72 hours, 1/4 to 4 times IC50, equipotent ratio
Protocol: The effect of treatment with the combinations of the invention on cell viability and apoptosis were evaluated in three human neuroblastoma cell lines: NB1643 (R1275Q), SH-SY5Y (F1174L) and EBC1 (WT) using the ApoTox-Glo Triplex assay. For confirmation, the treatment effect on cell viability was also evaluated in NB1643 (R1275Q) using the CellTitre-Glo (CTG) Luminescent Cell Viability assay. The assays were described, infra.
The test mixtures were evaluated by 72 hours after dosing, and the results were plotted in FIGS. 11A-C, 12A-C, 13A-C and 14A-C.
In vitro cell viability and Caspase-Glo 3/7 were simultaneously assayed using the ApoTox-Glo Triplex Assay (Promega, Calif.) in three neuroblastoma cell lines. […] After 72 hours of drug exposure, the fluorogenic substrate GF-AFC was added. The test mixture was incubated for 10 minutes and AFC fluorescence was measured at 380-400nm excitation and 505 nm emission.
Following measurement of live cell fluorescence, a luminogenic Caspase-Glo 3/7 substrate and luciferase was added to the same wells. Luminescence was measured after a 30 minutes incubation period. Luciferin is released following cleavage of the substrate by caspase-3/7, and thereby the luminescent signal is proportional to caspase activity.

Cc1cc(Nc2ncc(Cl)c(Nc3ccccc3S(=O)(=O)C(C)C)n2)c(OC(C)C)cc1C1CCNCC1 [Compound A1, 5-chloro-N2-(2-isopropoxy-5-methyl-4-(piperidin-4-yl)phenyl)-N4-[2-(propane-2-sulfonyl)-phenyl]-pyrimidine-2,4-diamine]
Synergy score (Mean) [1]: 1.231 | Max Combo Effect [1]: 151.1 | Intact cells and cell morphology by micrograph [2]: significant reduction in the number of intact cells | Cell viability (cell death) and apoptosis [3]: effective in causing cell death and apoptosis

CN(C)C(=O)c1cc2cnc(Nc3ccc(N4CCNCC4)cn3)nc2n1C1CCCC1 [Compound B, 7-cyclopentyl-N,N-dimethyl-2-((5-(piperazin-1-yl)pyridin-2-yl)amino)-7H-pyrrolo[2,3-d]pyrimidine-6-carboxamide]
Synergy score (Mean) [1]: 0.929 | Max Combo Effect [1]: 76.4 | Intact cells and cell morphology by micrograph [2]: minimal effect in cell numbers and cell morphology | Cell viability (cell death) and apoptosis [3]: only slightly effective
